Like-named read-outs stand apart in the source and are kept apart here.
What was measured:
Assay in all cases: Kinase binding assay (kinase-tagged T7 phage, affinity beads, qPCR), Kd
FGFR1 = target: T1, FGFR1 (Homo sapiens, UniProt P11362); conditions: read-out: FGFR1 (Kd nM)
T1 construct: made in house; host or cells: E. coli (BL21-derived), T7 phage
Procedure: (§1) Kinase-tagged T7 phage strains were prepared in an E. coli host derived from the BL21 strain. E. coli were grown to log-phase and infected with T7 phage and incubated with shaking at 32° C. until lysis. The lysates were centrifuged and filtered to remove cell debris. Streptavidin-coated magnetic beads were treated with biotinylated small molecule ligands for 30 minutes at room temperature to generate affinity resins for kinase assays. The liganded beads were blocked with excess biotin and washed with blocking buffer SeaBlock (Pierce), 1% BSA, 0.05% Tween 20, 1 mM DTT to remove unbound ligand and to reduce non-specific binding.
(§2) Test compounds were prepared as 111× stocks in 100% DMSO. Kds were determined using an 11-point 3-fold compound dilution series with three DMSO control points. […] The compounds were then diluted directly into the assays such that the final concentration of DMSO was 0.9%. All reactions performed in polypropylene 384-well plate. Each was a final volume of 0.02 ml. […] The kinase concentration in the eluates was measured by qPCR.
(§3) Binding constants were calculated with a standard dose-response curve using the Hill equation: […]
(§4) The Hill Slope was set to −1. Curves were fitted using a non-linear least square fit with the Levenberg-Marquardt algorithm.

FGFR2 = target: T2, FGFR2 (Homo sapiens, UniProt P21802); conditions: read-out: FGFR2 (Kd nM)
T2 construct: made in house; host or cells: E. coli (BL21-derived), T7 phage
T2 sequence (P21802 22-821): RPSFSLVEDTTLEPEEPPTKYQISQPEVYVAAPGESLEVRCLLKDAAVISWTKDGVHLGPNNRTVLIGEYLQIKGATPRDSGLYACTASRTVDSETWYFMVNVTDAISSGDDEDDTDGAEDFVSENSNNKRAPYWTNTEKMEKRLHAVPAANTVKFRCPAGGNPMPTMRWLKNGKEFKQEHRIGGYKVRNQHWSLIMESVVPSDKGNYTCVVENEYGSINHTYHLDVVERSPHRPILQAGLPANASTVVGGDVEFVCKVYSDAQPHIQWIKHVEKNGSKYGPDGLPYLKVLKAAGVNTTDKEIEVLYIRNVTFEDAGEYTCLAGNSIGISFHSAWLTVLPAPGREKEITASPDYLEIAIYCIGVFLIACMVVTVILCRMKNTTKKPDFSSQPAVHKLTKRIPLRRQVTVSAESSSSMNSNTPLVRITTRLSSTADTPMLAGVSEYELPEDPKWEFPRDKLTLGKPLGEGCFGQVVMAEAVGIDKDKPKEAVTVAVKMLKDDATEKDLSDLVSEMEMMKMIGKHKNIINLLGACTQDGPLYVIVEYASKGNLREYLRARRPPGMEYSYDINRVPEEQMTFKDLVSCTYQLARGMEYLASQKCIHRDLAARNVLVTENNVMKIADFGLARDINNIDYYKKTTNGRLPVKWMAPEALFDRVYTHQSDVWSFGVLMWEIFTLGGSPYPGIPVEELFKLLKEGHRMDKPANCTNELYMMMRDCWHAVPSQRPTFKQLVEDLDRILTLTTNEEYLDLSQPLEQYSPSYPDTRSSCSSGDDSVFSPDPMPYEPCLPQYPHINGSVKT
Procedure: as §1, §2, §3, §4

FGFR3 = target: T3, FGFR3 (Homo sapiens, UniProt P22607); conditions: read-out: FGFR3 (Kd nM)
T3 construct: made in house; host or cells: E. coli (BL21-derived), T7 phage
T3 sequence (P22607 23-806): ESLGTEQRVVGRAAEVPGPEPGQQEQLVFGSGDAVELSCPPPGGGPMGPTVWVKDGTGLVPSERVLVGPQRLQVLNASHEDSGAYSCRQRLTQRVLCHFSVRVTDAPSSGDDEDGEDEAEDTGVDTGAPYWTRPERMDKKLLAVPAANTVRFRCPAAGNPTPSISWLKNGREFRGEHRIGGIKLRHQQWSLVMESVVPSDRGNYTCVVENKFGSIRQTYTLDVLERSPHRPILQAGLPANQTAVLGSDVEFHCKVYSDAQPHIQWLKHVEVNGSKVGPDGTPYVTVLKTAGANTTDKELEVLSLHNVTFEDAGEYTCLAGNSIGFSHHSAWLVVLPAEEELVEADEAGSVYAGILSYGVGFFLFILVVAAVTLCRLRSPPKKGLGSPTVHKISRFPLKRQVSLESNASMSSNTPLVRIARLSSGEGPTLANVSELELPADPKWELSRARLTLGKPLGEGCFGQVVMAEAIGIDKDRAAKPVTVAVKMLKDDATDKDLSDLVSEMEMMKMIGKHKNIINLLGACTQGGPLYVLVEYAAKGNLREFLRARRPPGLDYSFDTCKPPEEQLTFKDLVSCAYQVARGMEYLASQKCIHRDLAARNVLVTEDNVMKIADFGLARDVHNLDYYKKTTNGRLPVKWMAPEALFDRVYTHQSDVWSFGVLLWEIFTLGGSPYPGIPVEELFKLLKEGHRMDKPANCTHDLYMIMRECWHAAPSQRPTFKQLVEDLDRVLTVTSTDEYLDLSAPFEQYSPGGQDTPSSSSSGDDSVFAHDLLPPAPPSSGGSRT
Procedure: as §1, §2, §3, §4

FGFR3 (V555M) = target: T4, FGFR3 (V555M) (Homo sapiens, UniProt P22607, V555M); conditions: V555M mutant; read-out: FGFR3 (V555M) (Kd nM)
T4 construct: made in house; host or cells: E. coli (BL21-derived), T7 phage
T4 sequence (P22607 23-806 V555M): as the sequence (P22607 23-806) above, with V533M counted along it
Procedure: as §1, §2, §3, §4

FGFR4 = target: T5, FGFR4 (Homo sapiens, UniProt P22455); conditions: read-out: FGFR4 (Kd nM)
T5 construct: made in house; host or cells: E. coli (BL21-derived), T7 phage
T5 sequence (P22455 22-802): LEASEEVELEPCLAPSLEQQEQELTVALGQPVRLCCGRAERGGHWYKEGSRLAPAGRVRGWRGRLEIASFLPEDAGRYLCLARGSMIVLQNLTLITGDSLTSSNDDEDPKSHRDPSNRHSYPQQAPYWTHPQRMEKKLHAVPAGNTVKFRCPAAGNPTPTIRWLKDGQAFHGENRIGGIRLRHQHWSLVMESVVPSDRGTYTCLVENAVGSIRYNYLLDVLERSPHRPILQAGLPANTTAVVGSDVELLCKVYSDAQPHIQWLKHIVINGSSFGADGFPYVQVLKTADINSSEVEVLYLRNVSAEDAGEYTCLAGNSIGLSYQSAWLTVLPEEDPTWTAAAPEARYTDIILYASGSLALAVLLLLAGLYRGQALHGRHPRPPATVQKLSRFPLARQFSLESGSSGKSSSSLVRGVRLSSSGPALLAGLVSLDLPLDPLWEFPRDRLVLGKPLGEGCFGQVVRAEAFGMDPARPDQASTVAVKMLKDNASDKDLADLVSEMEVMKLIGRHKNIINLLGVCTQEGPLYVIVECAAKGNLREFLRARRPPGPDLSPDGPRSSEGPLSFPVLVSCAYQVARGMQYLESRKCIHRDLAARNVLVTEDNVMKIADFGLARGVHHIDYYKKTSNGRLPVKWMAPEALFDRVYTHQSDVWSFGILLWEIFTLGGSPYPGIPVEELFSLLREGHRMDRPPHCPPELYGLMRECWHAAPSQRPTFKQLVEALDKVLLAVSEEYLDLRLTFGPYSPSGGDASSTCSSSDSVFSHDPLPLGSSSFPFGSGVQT
Procedure: as §1, §2, §3, §4

[1] = kinase binding assay, 11-point 3-fold dilution series

T1 sequence (P11362 22-822): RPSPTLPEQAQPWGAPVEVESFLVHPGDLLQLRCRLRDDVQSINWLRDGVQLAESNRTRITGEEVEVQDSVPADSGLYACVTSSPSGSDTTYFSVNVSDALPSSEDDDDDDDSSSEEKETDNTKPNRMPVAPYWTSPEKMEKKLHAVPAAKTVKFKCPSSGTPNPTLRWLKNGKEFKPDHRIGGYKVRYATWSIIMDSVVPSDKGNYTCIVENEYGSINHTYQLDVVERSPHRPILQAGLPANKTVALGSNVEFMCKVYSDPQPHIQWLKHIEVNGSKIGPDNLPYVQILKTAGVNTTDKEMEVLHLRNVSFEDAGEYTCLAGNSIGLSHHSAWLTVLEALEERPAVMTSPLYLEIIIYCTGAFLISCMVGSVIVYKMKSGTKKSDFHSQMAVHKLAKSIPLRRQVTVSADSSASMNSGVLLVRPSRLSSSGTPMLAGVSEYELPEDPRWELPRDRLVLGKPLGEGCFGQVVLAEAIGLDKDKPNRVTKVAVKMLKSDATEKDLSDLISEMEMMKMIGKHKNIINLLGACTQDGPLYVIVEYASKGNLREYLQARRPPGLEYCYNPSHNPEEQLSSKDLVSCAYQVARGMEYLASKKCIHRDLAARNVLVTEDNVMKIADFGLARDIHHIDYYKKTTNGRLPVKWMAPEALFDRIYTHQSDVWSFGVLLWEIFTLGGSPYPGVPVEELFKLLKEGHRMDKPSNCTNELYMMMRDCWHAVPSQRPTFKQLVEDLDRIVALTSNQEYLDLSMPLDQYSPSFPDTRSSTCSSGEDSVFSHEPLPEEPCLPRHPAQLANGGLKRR

Compound | Kd (FGFR1) | Kd (FGFR2) | Kd (FGFR3) | Kd (FGFR3 (V555M)) | Kd (FGFR4) | Kd (FGFR1; [1]) | Kd (FGFR3; [1])
3-[6-[3-(cyclobutoxy)- 3-methyl-azetidin-1- yl]-3-pyridy1]-5-[(1R)- 1-(3,5-dichloro-2- methyl-4- pyridyl)ethoxy]-1H- indazole [Example 75] | 300 to 1000 nM | 50 to 300 nM | 1 to 50 nM | 1 to 50 nM | 50 to 300 nM |  | 
C[C@@H](Oc1cc2c(-c3cnc(N4CC5(CC5)C4)c(C#N)c3)n[nH]c2cc1F)c1c(Cl)cncc1Cl [Example 5, (R)-5-(5-(1-(3,5-Dichloropyridin-4-yl)ethoxy)-6-fluoro-1H-indazol-3-yl)-2-(5-azaspiro[2.3]hexan-5-yl)nicotinonitrile] | > 1000 nM | > 1000 nM | 50 to 300 nM | 50 to 300 nM | 1 to 50 nM |  | 
CCNC1(C)CN(c2ncc(-c3n[nH]c4ccc(O[C@H](C)c5c(Cl)cnc(C)c5Cl)cc34)cc2C#N)C1 [Example 40, 5-[5-[(1R)-1-(3,5-dichloro-2-methyl-4-pyridyl)ethoxy]-1H-indazol-3-yl]-2-[3-(ethylamino)-3-methyl-azetidin-1-yl]pyridine-3-carbonitrile] | 50 to 300 nM | 50 to 300 nM | 1 to 50 nM | 1 to 50 nM | 1 to 50 nM |  | 
C[C@@H](Oc1ccc2[nH]nc(-c3ccc(N4CCC(N)(CCS(C)(=O)=O)CC4)nn3)c2c1)c1c(Cl)cncc1Cl [Example 398, (R)-1-(6-(5-(1-(3,5-dichloropyridin-4-yl)ethoxy)-1H-indazol-3-yl)pyridazin-3-yl)-4-(2-(methylsulfonyl)ethyl) piperidin-4-amine] |  |  |  |  |  | 1 to 50 nM | 1 to 50 nM
C[C@@H](Oc1ccc2[nH]nc(-c3cnc(N4CC[C@@](C)(N)C4)c(F)c3)c2c1)c1c(Cl)cncc1Cl [Example 400, (R)-1-(5-(5-((R)-1-(3,5-dichloropyridin-4-yl)ethoxy)-1H-indazol-3-yl)-3-fluoropyridin-2-yl)-3-methylpyrrolidin-3-amine] |  |  |  |  |  | 1 to 50 nM | 1 to 50 nM
C[C@@H](Oc1ccc2[nH]nc(-c3cnc(N4CCC(C)(N)CC4)c(F)c3)c2c1)c1c(Cl)cncc1Cl [Example 401] |  |  |  |  |  | 1 to 50 nM | 1 to 50 nM
CC[C@]1(N)CCN(c2ccc(-c3n[nH]c4ccc(O[C@H](C)c5c(Cl)cncc5Cl)cc34)nn2)C1 [Example 403, (S)-1-(6-(5-((R)-1-(3,5-dichloropyridin-4-yl)ethoxy)-1H-indazol-3-yl)pyridazin-3-yl)-3-ethylpyrrolidin-3-amine] |  |  |  |  |  | 1 to 50 nM | 1 to 50 nM
C[C@@H](Oc1ccc2[nH]nc(-c3cnc(N4CC[C@](N)(c5ccnn5C)C4)c(F)c3)c2c1)c1c(Cl)cncc1Cl [Example 404, (R)-1-(5-(5-((R)-1-(3,5-dichloropyridin-4-yl)ethoxy)-1H-indazol-3-yl)-3-fluoropyridin-2-yl)-3-(1-methyl-1H-pyrazol-5-yl)pyrrolidin-3-amine] |  |  |  |  |  | 1 to 50 nM | 1 to 50 nM
C[C@@H](Oc1ccc2[nH]nc(-c3cnc(N4CC[C@@](N)(c5ccnn5C)C4)c(F)c3)c2c1)c1c(Cl)cncc1Cl [Example 405, (S)-1-(5-(5-((R)-1-(3,5-dichloropyridin-4-yl)ethoxy)-1H-indazol-3-yl)-3-fluoropyridin-2-yl)-3-(1-methyl-1H-pyrazol-5-yl)pyrrolidin-3-amine] |  |  |  |  |  | 1 to 50 nM | 1 to 50 nM
C[C@@H](Oc1ccc2[nH]nc(-c3ccc(N4CC[C@](C)(N)C4)nn3)c2c1)c1c(Cl)cncc1Cl [Example 407, (S)-1-(6-(5-((R)-1-(3,5-dichloropyridin-4-yl)ethoxy)-1H-indazol-3-yl)pyridazin-3-yl)-3-methylpyrrolidin-3-amine] |  |  |  |  |  | 1 to 50 nM | 1 to 50 nM
C[C@@H](Oc1ccc2[nH]nc(-c3cnc(N4CC(N)(CS(C)(=O)=O)C4)c(F)c3)c2c1)c1c(Cl)cncc1Cl [Example 412, 1-[5-[5-[(1R)-1-(3,5-dichloro-4-pyridyl)ethoxy]-1H-indazol-3-yl]-3-fluoro-2-pyridyl]-3-(methylsulfonyl-methyl)azetidin-3-amine] |  |  |  |  |  | 1 to 50 nM | 1 to 50 nM
C[C@@H](Oc1ccc2[nH]nc(-c3ccc(N4CC[C@](N)(Cc5ccnn5C)C4)nn3)c2c1)c1c(Cl)cncc1Cl [Example 424, (S)-1-(6-(5-((R)-1-(3,5-dichloropyridin-4-yl)ethoxy)-1H-indazol-3-yl)pyridazin-3-yl)-3-((1-methyl-1H-pyrazol-5-yl)methyl)pyrrolidin-3-amine] |  |  |  |  |  | 1 to 50 nM | 1 to 50 nM
C[C@@H](Oc1ccc2[nH]nc(-c3ccc(N4CC[C@@](N)(Cc5ccnn5C)C4)nn3)c2c1)c1c(Cl)cncc1Cl [Example 425, (R)-1-(6-(5-((R)-1-(3,5-dichloropyridin-4-yl)ethoxy)-1H-indazol-3-yl)pyridazin-3-yl)-3-((1-methyl-1H-pyrazol-5-yl)methyl)pyrrolidin-3-amine] |  |  |  |  |  | 1 to 50 nM | 1 to 50 nM
C[C@@H](Oc1ccc2[nH]nc(-c3ccc(N4CC[C@](N)(Cc5ccn(C)n5)C4)nn3)c2c1)c1c(Cl)cncc1Cl [Example 426, (S)-1-(6-(5-((R)-1-(3,5-dichloropyridin-4-yl)ethoxy)-1H-indazol-3-yl)pyridazin-3-yl)-3-((1-methyl-1H-pyrazol-3-yl)methyl)pyrrolidin-3-amine] |  |  |  |  |  | 1 to 50 nM | 1 to 50 nM
C[C@@H](Oc1ccc2[nH]nc(-c3cnc(N4CC[C@](N)(Cc5ccn(C)n5)C4)c(F)c3)c2c1)c1c(Cl)cncc1Cl [Example 428, (S)-1-(5-(5-((R)-1-(3,5-dichloropyridin-4-yl)ethoxy)-1H-indazol-3-yl)-3-fluoropyridin-2-yl)-3-((1-methyl-1H-pyrazol-3-yl)methyl)pyrrolidin-3-amine] |  |  |  |  |  | 1 to 50 nM | 1 to 50 nM

Next, values leading:

Kd (FGFR1) | Kd (FGFR2) | Kd (FGFR3) | Kd (FGFR3 (V555M)) | Kd (FGFR4) | Kd (FGFR1; [1]) | Kd (FGFR3; [1]) | Compound
50 to 300 nM | 50 to 300 nM | 1 to 50 nM | 1 to 50 nM | 1 to 50 nM |  |  | C[C@@H](Oc1ccc2[nH]nc(-c3cnc(N4CC(C)(NC5CCC5)C4)c(C#N)c3)c2c1)c1c(Cl)cncc1Cl [Example 2, (R)-2-(3-(cyclobutylamino)-3-methylazetidin-1-yl)-5-(5-(1-(3,5-dichloropyridin-4-yl)ethoxy)-1H-indazol-3-yl)nicotinonitrile]
50 to 300 nM | 300 to 1000 nM | 1 to 50 nM | 1 to 50 nM | 1 to 50 nM |  |  | COc1cc2[nH]nc(-c3cnc(N4CC5(CC5)C4)c(C#N)c3)c2cc1O[C@H](C)c1c(Cl)cncc1Cl [Example 3, (R)-5-(5-(1-(3,5-dichloropyridin-4-yl)ethoxy)-6-methoxy-1H-indazol-3-yl)-2-(5-azaspiro[2.3]hexan-5-yl)nicotinonitrile]
50 to 300 nM | 1 to 50 nM | 1 to 50 nM | 1 to 50 nM | 1 to 50 nM |  |  | COc1cc2[nH]nc(-c3cnc(N4CCC4)c(F)c3)c2cc1O[C@H](C)c1c(Cl)cnc(C)c1Cl [Example 58, 3-[6-(azetidin-1-yl)-5-fluoro-3-pyridyl]-5-[(1R)-1-(3,5-dichloro-2-methyl-4-pyridyl)ethoxy]-6-methoxy-1H-indazole]
 |  |  |  |  | 1 to 50 nM | 1 to 50 nM | CNC(=O)CNC1(C)CN(c2ncc(-c3n[nH]c4ccc(O[C@H](C)c5c(Cl)cncc5Cl)cc34)cc2F)C1 [Example 399, (R)-2-((1-(5-(5-(1-(3,5-dichloropyridin-4-yl)ethoxy)-1H-indazol-3-yl)-3-fluoropyridin-2-yl)-3-methylazetidin-3-yl)amino)-N-methylacetamide]
 |  |  |  |  | 1 to 50 nM | 1 to 50 nM | CC[C@@]1(N)CCN(c2ccc(-c3n[nH]c4ccc(O[C@H](C)c5c(Cl)cncc5Cl)cc34)nn2)C1 [Example 402, (R)-1-(6-(5-((R)-1-(3,5-dichloropyridin-4-yl)ethoxy)-1H-indazol-3-yl)pyridazin-3-yl)-3-ethylpyrrolidin-3-amine]
 |  |  |  |  | 1 to 50 nM | 1 to 50 nM | C[C@@H](Oc1ccc2[nH]nc(-c3ccc(N4CC[C@@](C)(N)C4)nn3)c2c1)c1c(Cl)cncc1Cl [Example 406, (R)-1-(6-(5-((R)-1-(3,5-dichloropyridin-4-yl)ethoxy)-1H-indazol-3-yl)pyridazin-3-yl)-3-methylpyrrolidin-3-amine]
 |  |  |  |  | 1 to 50 nM | 1 to 50 nM | C[C@@H](Oc1ccc2[nH]nc(-c3ccc(N4CC[C@@](N)(c5ccnn5C)C4)nn3)c2c1)c1c(Cl)cncc1Cl [Example 417, (S)-1-(6-(5-((R)-1-(3,5-dichloropyridin-4-yl)ethoxy)-1H-indazol-3-yl)pyridazin-3-yl)-3-(1-methyl-1H-pyrazol-5-yl)pyrrolidin-3-amine]
 |  |  |  |  | 1 to 50 nM | 1 to 50 nM | C[C@@H](Oc1ccc2[nH]nc(-c3ccc(N4CC[C@@](N)(Cc5ccn(C)n5)C4)nn3)c2c1)c1c(Cl)cncc1Cl [Example 427, (R)-1-(6-(5-((R)-1-(3,5-dichloropyridin-4-yl)ethoxy)-1H-indazol-3-yl)pyridazin-3-yl)-3-((1-methyl-1H-pyrazol-3-yl)methyl)pyrrolidin-3-amine]

— patent publication US20250368666A1, “INDAZOLE COMPOUNDS” (TYRA BIOSCIENCES, INC., priority 2022, published 2025)
